Source: PMC8261254 (Asian Journal of Pharmaceutical Sciences, 2021)
In brackets after ≈: the same amount, converted by molar mass. Like-named read-outs stand apart in the source and are kept apart here.

Columns and labels:
[1] = PTX solubility in PLHNs / water; type: physicochemical
[2] = cited from earlier work

- solubility [1]: ~6 µg/mL (≈ 7.03 µM)
SMILES: CC(=O)O[C@H]1C(=O)[C@@]2(C)[C@H]([C@H](OC(=O)c3ccccc3)[C@]3(O)C[C@H](OC(=O)[C@H](O)[C@@H](NC(=O)c4ccccc4)c4ccccc4)C(C)=C1C3(C)C)[C@]1(OC(C)=O)CO[C@@H]1C[C@@H]2O [PTX, Paclitaxel]
- Plasma concentration threshold above which PTX is pharmacologically active [2]: 0.1 µM
- Plasma concentration threshold above which PTX is pharmacologically active ([2]; equivalent of 0.1 µM): 85.3 ng/ml
